Patent EP4803520A1, “COMPOUND CONTAINING FUSED BICYCLIC RING, PHARMACEUTICAL COMPOSITION, AND USE THEREOF” (priority 2023, dated 2025)

Experiments:
MDA-MB-436 cells = assay: Assay on inhibitory activity for MDA-MB-436 cell proliferation (CCK-8); type: cell-based; details: 168 h of incubation, CCK-8, absorbance at 450 nm
Experimental: MDA-MB-436 cells in a good growth state were collected into a centrifuge tube, adjusted to a cell density of 2 × 10^4 cells/mL using a complete medium (DMEM high glucose + 10% FBS + 1× insulin-transferrin-selenium (ITS-G) + 16 µg/mL reduced glutathione), and seeded in a 96-well plate (100 µL/well), and the plate was incubated overnight in a cell incubator. Compounds were added using a pipettor, such that the final concentrations of the compounds were 400 nM-0.02 nM. The wells were set in duplicate, and a control well was set. After 168 h of incubation in the cell incubator, the assay reagent CCK-8 (manufacturer: Dojindo Laboratories, Beijing; 10 µL/well) was added. After 1.5 h of incubation in the cell incubator, the absorbance values were measured at 450 nm on a PerkinElmer Envision microplate reader. […] Inhibitory activity results for DA-MB-436 cell proliferation of compounds

PARP1 [1] = target: T1, PARP1 (Homo sapiens, UniProt P09874); assay: PARP1-Tracer activity assay (FP method); type: binding; parameters: purchased BPS 80551; details: for PARP2/PARP 1 selectivity: ratio of PARP2 IC50 to PARP1 IC50, FP method
T1 sequence (P09874 whole entry): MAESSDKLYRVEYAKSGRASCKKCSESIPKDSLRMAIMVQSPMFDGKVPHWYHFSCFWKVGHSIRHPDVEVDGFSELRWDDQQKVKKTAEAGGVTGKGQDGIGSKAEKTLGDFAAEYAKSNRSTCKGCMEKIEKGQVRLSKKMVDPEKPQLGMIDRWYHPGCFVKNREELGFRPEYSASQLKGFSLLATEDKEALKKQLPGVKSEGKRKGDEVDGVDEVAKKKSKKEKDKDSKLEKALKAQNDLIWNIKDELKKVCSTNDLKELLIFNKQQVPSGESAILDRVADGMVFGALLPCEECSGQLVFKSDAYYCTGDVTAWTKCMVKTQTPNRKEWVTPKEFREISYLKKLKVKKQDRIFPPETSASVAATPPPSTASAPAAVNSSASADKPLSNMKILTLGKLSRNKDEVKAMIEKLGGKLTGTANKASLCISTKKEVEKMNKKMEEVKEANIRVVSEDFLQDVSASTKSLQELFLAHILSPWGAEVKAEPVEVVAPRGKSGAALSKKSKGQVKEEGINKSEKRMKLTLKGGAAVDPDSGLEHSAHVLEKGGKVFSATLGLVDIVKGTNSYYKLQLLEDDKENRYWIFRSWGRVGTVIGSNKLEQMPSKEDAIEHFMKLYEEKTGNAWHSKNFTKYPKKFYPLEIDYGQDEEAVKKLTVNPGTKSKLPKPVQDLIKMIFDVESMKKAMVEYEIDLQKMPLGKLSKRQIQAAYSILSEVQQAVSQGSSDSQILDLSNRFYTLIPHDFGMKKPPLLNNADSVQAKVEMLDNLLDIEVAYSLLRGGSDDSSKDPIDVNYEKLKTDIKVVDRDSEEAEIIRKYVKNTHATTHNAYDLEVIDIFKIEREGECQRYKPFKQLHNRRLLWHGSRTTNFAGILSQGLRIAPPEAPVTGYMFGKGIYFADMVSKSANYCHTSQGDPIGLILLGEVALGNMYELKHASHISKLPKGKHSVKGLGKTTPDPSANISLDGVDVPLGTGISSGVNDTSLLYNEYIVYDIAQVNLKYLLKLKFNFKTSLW
Experimental: (§1) The enzyme inhibition activity of the compounds against PARP1/2-Tracer was tested using the FP method. First, 100 nL of inhibitors with a final concentration of 1% DMSO were transferred to a 384-well reaction plate (Corning 4514) using Echo655. Then, 5 µL of a PARP1/2 (BPS, Cat. No. 80501/80502) enzyme solution was added to each well, followed by centrifugation at 1000 RPM for 1 min at room temperature, and the reaction was allowed to proceed for 10 min. Subsequently, 5 µL of a Tracer (ICE, Cat. No. 001315-009) solution was added to each well, followed by centrifugation at 1000 RPM for 1 min at room temperature, and the reaction was allowed to proceed for 60 min. PARP1/2 and Tracer were prepared in a buffer containing 50 mM Tris (pH 8.0), 10 mM MgCl2, 150 mM NaCl, and 0.001% Triox-100, with final concentrations of 5/10 nM and 2.5 nM, respectively. Finally, the FP signal was read using BMG (PHERAstar FSX), and the IC50 values and nonlinear regression curve fitting were obtained using GraphPad Prism software.

PARP1 [2] = target: T1, PARP1; assay: Assay on PARP1 protein activity (chemiluminescence assay kit)
Experimental: A chemiluminescence assay kit (BPS, Cat. No. 80551) was used. 50 µL of 1× histone was added to a 96-well plate and incubated overnight at 4 °C. Each well was washed 3 times with 200 µL of a PBST buffer (containing 0.05% Tween-20), and the liquid was removed from the plate. 200 µL of blocking buffer 3 was added, and the plate was blocked at room temperature for 60-90 min. The blocking solution was discarded, and the plate was washed 3 times with a PBST buffer, followed by the removal of the liquid from the plate. 25 µL of a master mix (2.5 µL of a 10× PARP buffer + 2.5 µL of a 10× biotinylated substrate assay mix + 5 µL of activated DNA (5×) + 15 µL of water) and 5 µL of a 1× PARP buffer were added to each well. Compounds were sprayed using a nanoliter pipettor in the compound groups. 20 µL of a 1× PARP buffer was added to the blank control group, and 20 µL of PARP 1 enzyme (2.4 ng/mL) was added to the other wells to initiate the reaction. The plate was incubated at room temperature for 1 h. 50 µL of streptavidin-HRP (diluted 1:50 in blocking buffer 3) was added to each well, and the plate was incubated at room temperature for 30 min. The plate was washed three times with PBST, and the liquid was removed from the plate. 50 µL of ELISA ECL substrate A and 50 µL of ELISA ECL substrate B were mixed on ice before use, and 100 µL were added to each well.

Mouse pharmacokinetics = type: in vivo; details: plasma, ICR mice
Description: A non-compartmental model was used for fitting to calculate relevant pharmacokinetic parameters, and the results are shown in Table 3. Table 3. Pharmacokinetic results of compounds in mice

Rat pharmacokinetics = type: in vivo; details: plasma, SD rats
Description: A non-compartmental model was used for fitting to calculate relevant pharmacokinetic parameters, and the results are shown in Table 4. Table 4. Pharmacokinetic results of compounds in rats

PARP2 = target: T2, PARP2 (Homo sapiens, UniProt Q9UGN5); assay: PARP2-Tracer activity assay (FP method); type: binding; details: PARP2 10 nM, Tracer 2.5 nM
T2 construct: purchased BPS 80502
T2 sequence (Q9UGN5 whole entry): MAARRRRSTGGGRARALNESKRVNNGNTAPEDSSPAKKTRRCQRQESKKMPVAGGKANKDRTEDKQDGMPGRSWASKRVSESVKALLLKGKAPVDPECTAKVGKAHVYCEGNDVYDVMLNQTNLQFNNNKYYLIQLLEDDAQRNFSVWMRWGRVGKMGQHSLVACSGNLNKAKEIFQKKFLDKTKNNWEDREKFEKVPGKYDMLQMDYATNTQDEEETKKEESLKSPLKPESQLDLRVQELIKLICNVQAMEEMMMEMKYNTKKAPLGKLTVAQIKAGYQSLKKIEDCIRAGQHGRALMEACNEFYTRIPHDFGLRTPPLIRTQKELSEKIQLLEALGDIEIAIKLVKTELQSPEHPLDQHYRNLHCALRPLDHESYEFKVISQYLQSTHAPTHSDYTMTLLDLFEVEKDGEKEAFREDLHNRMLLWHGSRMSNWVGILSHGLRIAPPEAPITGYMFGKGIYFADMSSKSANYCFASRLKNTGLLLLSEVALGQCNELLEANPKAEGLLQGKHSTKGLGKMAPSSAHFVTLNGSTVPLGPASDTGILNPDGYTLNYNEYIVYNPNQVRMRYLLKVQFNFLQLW
Experimental: as §1

[3] = Experiment on brain distribution in rats; type: in vivo, SD rats; details: rat, po
[4] = test system: MDA-MB-436 BRCA1m human breast cancer nude mouse subcutaneous xenograft tumor model; assay: Pharmacodynamic evaluation in nude mouse subcutaneous xenograft tumor model; type: in vivo, nude mice; details: ig 4 mg/kg once daily, after 22 days of administration
Experimental: MDA-MB-436 BRCA1m human breast cancer cells (5 × 10^6 cells/mouse) were inoculated subcutaneously into the right axilla of SPF-grade female nude mice. When the mean tumor volume reached about 150 mm^3, the animals were grouped.
The day of grouping was defined as day 0. The compound of the present application was intragastrically administered once on day 0, and was then administered once daily at a dose of 4 mg/kg with a vehicle of DMSO:PEG400 = 10:90 (v/v). The tumor volume and body weight were measured twice to thrice every week, and the data were recorded. The general behavior of the mice was observed and recorded every day. After the experiment was completed, the tumors were extracted, weighed, and photographed.
The detection parameters and the calculation formulas are as follows: Tumor volume TV (mm^3) = 1/2 × (a×b^2), [formula] where a represents the long diameter of the tumor, and b represents the short diameter of the tumor. Relative tumor volume RTV = TVt /TV0 , [formula] wherein TV0 represents the tumor volume on day 0, and TVt represents the tumor volume at each measurement. Relative tumor proliferation rate T/C (%) = (TRTV/CRTV) × 100%, [formula] where TRTV represents RTV of the treatment group, and CRTV represents RTV of the vehicle control group. […]

Compound: CNC(=O)n1cc2c(n1)CN(C1CN(Cc3ccc4cc(C(F)(F)F)c(=O)[nH]c4c3)C1)C2 [Compound 24]
- IC50 (MDA-MB-436 cells; Homo sapiens, MDA-MB-436): ≤ 50 nM
- PARP2/PARP 1 selectivity (PARP1 [1]): >200 fold

Compound: CCc1cc2c(Cl)cc(CN3CC(N4Cc5cn(C(=O)NC)nc5C4)C3)cc2[nH]c1=O [Compound 25]
- IC50 (MDA-MB-436 cells; Homo sapiens, MDA-MB-436): ≤ 50 nM

Compound: CNC(=O)n1cc2c(n1)CN(C1CN(Cc3ccc4cc(Cl)c(=O)[nH]c4c3)C1)C2 [Compound 26]
- IC50 (MDA-MB-436 cells; Homo sapiens, MDA-MB-436): ≤ 50 nM

Compound: CNC(=O)c1nc2c(s1)CN(C1CN(Cc3ccc4cc(Cl)c(=O)[nH]c4c3)C1)C2 [Compound 27]
- IC50 (MDA-MB-436 cells; Homo sapiens, MDA-MB-436): ≤ 50 nM

Compound: CNC(=O)c1nc2c(s1)CN(C1CN(Cc3ccc4cc(C(F)(F)F)c(=O)[nH]c4c3)C1)C2 [Compound 28]
- IC50 (MDA-MB-436 cells; Homo sapiens, MDA-MB-436): ≤ 50 nM

Compound: CCc1cc2ccc(CN3CC(N4Cc5cn(C(=O)NC)nc5C4)C3)c(F)c2[nH]c1=O [Compound 29]
- IC50 (MDA-MB-436 cells; Homo sapiens, MDA-MB-436): ≤ 50 nM

Compound: CCc1cc2ccc(CN3CC(N4Cc5nc(C(=O)NC)sc5C4)C3)c(F)c2[nH]c1=O [Compound 30]
- IC50 (MDA-MB-436 cells; Homo sapiens, MDA-MB-436): ≤ 50 nM

Compound: CNC(=O)c1nc2c(s1)CN(C1CN(Cc3ccc4cc(C5CC5)c(=O)[nH]c4c3)C1)C2 [Compound 31]
- IC50 (MDA-MB-436 cells; Homo sapiens, MDA-MB-436): ≤ 50 nM

Compound: CNC(=O)c1cc2c(s1)CN(C1CN(Cc3ccc4cc(C(F)(F)F)c(=O)[nH]c4c3)C1)C2 [Compound 33]
- IC50 (MDA-MB-436 cells; Homo sapiens, MDA-MB-436): ≤ 50 nM

Compound: CNC(=O)n1cc2c(n1)CN(C1CN(Cc3ccc4c(c3)[nH]c(=O)n3cccc43)C1)C2 [Compound 34]
- IC50 (MDA-MB-436 cells; Homo sapiens, MDA-MB-436): ≤ 50 nM

Compound: CNC(=O)n1cc2c(n1)CN([C@H]1CN(Cc3ccc4cc(C(F)(F)F)c(=O)[nH]c4c3)[C@H]1C)C2 [Compound 36]
- IC50 (MDA-MB-436 cells; Homo sapiens, MDA-MB-436): ≤ 50 nM

Compound: CCc1cc2ccc(CN3C[C@H](N4Cc5cn(C(=O)NC)nc5C4)[C@@H]3C)cc2[nH]c1=O [Compound 41]
- IC50 (MDA-MB-436 cells; Homo sapiens, MDA-MB-436): ≤ 50 nM
- IC50 (PARP1 [2]): < 10 nM

Compound: CNC(=O)n1cc2c(n1)CN([C@H]1CN(Cc3ccc4cc(C5CC5)c(=O)[nH]c4c3)[C@H]1C)C2 [Compound 42]
- IC50 (MDA-MB-436 cells; Homo sapiens, MDA-MB-436): ≤ 50 nM
- IC50 (PARP1 [2]): < 1 nM

Compound: CNC(=O)n1cc2c(n1)CN([C@@H]1CN(Cc3ccc4cc(C5CC5)c(=O)[nH]c4c3)[C@H]1C)C2 [Compound 43]
- IC50 (MDA-MB-436 cells): ≤ 50 nM

Compound: CCc1nc2ccc(CN3C[C@H](N4Cc5cn(C(=O)NC)nc5C4)[C@@H]3C)cc2[nH]c1=O [Compound 45]
- IC50 (MDA-MB-436 cells; Homo sapiens, MDA-MB-436): ≤ 50 nM
- PARP2/PARP 1 selectivity (PARP1 [1]): >200 fold

Compound: CCc1cc2ncc(CN3C[C@H](N4Cc5cn(C(=O)NC)nc5C4)[C@@H]3C)cc2[nH]c1=O [Compound 47]
- IC50 (MDA-MB-436 cells; Homo sapiens, MDA-MB-436): ≤ 50 nM
- IC50 (PARP1 [2]): < 1 nM

Compound: CNC(=O)n1cc2c(n1)CN(C1CN(Cc3ccc4c(C)c(C(F)(F)F)c(=O)[nH]c4c3)C1)C2 [Compound 50]
- IC50 (MDA-MB-436 cells; Homo sapiens, MDA-MB-436): ≤ 50 nM
- IC50 (PARP1 [2]): < 1 nM

Compound: CCc1nc2ccc(CN3C[C@H](N4Cc5cn(C(=O)NC)nc5C4)[C@@H]3C)c(F)c2[nH]c1=O [Compound 51]
- IC50 (MDA-MB-436 cells; Homo sapiens, MDA-MB-436): ≤ 50 nM

Compound: CNC(=O)n1cc2c(n1)CN([C@H]1CN(Cc3ccc4c(C)c(C(F)(F)F)c(=O)[nH]c4c3)[C@H]1C)C2 [Compound 54]
- IC50 (MDA-MB-436 cells; Homo sapiens, MDA-MB-436): ≤ 50 nM
- IC50 (PARP1 [2]): < 1 nM

Compound: CNC(=O)n1cc2c(n1)CN([C@H]1CN(Cc3ccc4cc(C(F)(F)F)c(=O)[nH]c4c3F)[C@H]1C)C2 [Compound 55]
- IC50 (MDA-MB-436 cells; Homo sapiens, MDA-MB-436): ≤ 50 nM
- AUC(0-t) (Mouse pharmacokinetics; iv 0.1 mg/kg): 6650 ng·h/mL
- half-life (Mouse pharmacokinetics; iv 0.1 mg/kg): 13.6 h
- AUC(0-t) (Mouse pharmacokinetics; po, ig 0.1 mg/kg): 5490 ng·h/mL
- Cmax (Mouse pharmacokinetics; po, ig 0.1 mg/kg): 331 ng/mL
- AUC(0-t) (Rat pharmacokinetics; iv 0.1 mg/kg): 326 ng·h/mL
- half-life (Rat pharmacokinetics; iv 0.1 mg/kg): 4.74 h
- AUC(0-t) (Rat pharmacokinetics; po, ig 0.5 mg/kg): 1710 ng·h/mL
- Cmax (Rat pharmacokinetics; po, ig 0.5 mg/kg): 208 ng/mL
- half-life (Rat pharmacokinetics; po, ig 0.5 mg/kg): 4.76 h
- IC50 (PARP2): > 500 nM
- Kp at 8 h ([3]; brain, 2 mg/kg, read-out: Brain-to-blood ratio): 0.082
- AUC at 8 h ([3]; SD rats, ig 2 mg/kg, brain homogenate): 453 ng·h/mL
- AUC(0-t) at 8 h ([3]; SD rats, ig 2 mg/kg, plasma): 5530 ng·h/mL
- tumor inhibition rate [4]: up to 97%
- IC50 (PARP1 [1]; FP method, PARP1 5 nM, Tracer 2.5 nM): 3.1 nM
- PARP2/PARP 1 selectivity (PARP1 [1]): >200 fold
- IC50 (PARP1 [2]): < 1 nM
